Data set [1] in a line: Cytotoxicity against African green monkey Vero cells. Format: toxicity, cell-based. The note with it: chlorocebus sabaeus.
The test system of another data set is Dengue virus. Kind of data set: Antiviral activity against DENV NS5/RNA-dependent RNA polymerase. Format: functional, organism-based.
Another data set has as its system dengue virus type 2. Kind of data set: Antiviral activity against DENV-2 RNA-dependent RNA polymerase infected in human Huh-7 cells assessed as reduction in viral replication by RT-PCR analysis. Type of data set: functional, organism-based.
The subject of data set [2] is Zika virus. Kind of data set: Antiviral activity against Zika virus infected in African green monkey Vero cells assessed as reduction in viral replication incubated for 24 hrs. Type of data set: functional, organism-based.
A further data set deals with NS5 (Zika virus, UniProt A0A143MHK7). Kind of data set: Inhibition of Zika virus RNA-dependent RNA polymerase activity.
Chain of NS5 (A0A143MHK7 whole entry): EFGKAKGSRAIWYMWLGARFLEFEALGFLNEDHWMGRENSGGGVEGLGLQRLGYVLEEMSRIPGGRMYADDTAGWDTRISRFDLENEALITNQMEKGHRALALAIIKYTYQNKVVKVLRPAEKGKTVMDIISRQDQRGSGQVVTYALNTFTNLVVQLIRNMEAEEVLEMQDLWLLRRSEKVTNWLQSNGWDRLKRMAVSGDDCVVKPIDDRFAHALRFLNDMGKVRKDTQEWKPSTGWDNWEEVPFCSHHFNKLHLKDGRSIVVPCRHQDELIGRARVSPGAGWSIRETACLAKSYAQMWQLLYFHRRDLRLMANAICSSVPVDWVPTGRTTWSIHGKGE
For data set [3], the target named is T1, Nonstructural protein 5 (Dengue virus, UniProt V5TFZ2). In words: Inhibition of full length His-tagged DENV-2 NS5 incubated for 1 hr. Also noted: species or system dengue virus type 2.
T1 sequence (V5TFZ2 whole entry): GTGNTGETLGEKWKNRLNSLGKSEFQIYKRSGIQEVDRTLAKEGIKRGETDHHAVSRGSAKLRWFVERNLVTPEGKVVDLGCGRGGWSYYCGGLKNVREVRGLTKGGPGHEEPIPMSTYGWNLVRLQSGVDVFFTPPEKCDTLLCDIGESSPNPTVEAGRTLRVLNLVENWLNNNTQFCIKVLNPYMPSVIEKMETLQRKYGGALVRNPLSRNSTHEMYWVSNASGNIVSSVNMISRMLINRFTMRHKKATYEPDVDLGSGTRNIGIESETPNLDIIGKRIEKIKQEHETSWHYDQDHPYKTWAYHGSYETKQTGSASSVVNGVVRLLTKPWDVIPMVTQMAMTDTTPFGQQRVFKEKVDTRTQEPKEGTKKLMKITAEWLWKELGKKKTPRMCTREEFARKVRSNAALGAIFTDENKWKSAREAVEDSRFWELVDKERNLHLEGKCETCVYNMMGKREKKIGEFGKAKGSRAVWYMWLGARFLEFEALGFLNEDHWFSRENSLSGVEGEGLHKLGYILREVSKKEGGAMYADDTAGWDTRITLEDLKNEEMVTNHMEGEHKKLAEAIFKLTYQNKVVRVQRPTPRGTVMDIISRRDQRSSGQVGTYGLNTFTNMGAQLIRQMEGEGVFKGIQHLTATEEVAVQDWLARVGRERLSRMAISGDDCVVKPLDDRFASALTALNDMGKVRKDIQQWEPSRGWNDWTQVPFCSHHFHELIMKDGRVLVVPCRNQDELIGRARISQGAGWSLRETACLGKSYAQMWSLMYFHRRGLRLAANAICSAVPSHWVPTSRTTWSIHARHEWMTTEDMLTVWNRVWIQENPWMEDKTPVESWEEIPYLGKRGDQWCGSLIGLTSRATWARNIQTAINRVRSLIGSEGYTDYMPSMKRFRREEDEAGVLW
A short description of data set [4]: Inhibition of DENV RNA-dependent RNA polymerase in hamster BHK-21 cells. Type of data set: cell-based, Dengue virus.
Data set [5] can be described thus: Cytotoxicity against hamster BHK-21 cells. Type of data set: toxicity, cell-based, Mesocricetus auratus.
For the next data set, the target named is NS5 (Zika virus) (UniProt A0A143MHK7). In words: Inhibition of Zika virus RNA-dependent RNA polymerase relative to control. The note with it: concentration not given here.
Chain of NS5 (Zika virus) (A0A143MHK7 as listed by the source): as the sequence (A0A143MHK7 whole entry) above
Data set [6] has as its target T1, Nonstructural protein 5. Kind of data set: Inhibition of DENV NS5/RNA-dependent RNA polymerase.
For a further data set, the system named is dengue virus type 1. In words: Antiviral activity against DENV-1 infected in African green monkey Vero E6 cells. Type of data set: functional, organism-based. The note with it: Vero C1008.
For the next data set, the system named is dengue virus type 3. In words: Antiviral activity against DENV-3 infected in African green monkey Vero E6 cells. Type of data set: functional, organism-based. Particulars: Vero C1008.
The test system of data set [7] is dengue virus type 4. Kind of data set: Antiviral activity against DENV-4 infected in African green monkey Vero E6 cells. Format: functional, organism-based. Particulars: Vero C1008.
Data set [8] deals with Zika virus. In words: Antiviral activity against Zika virus infected in African green monkey Vero E6 cells. Particulars: Vero C1008. Format: functional, organism-based.
Data set [9] is described as follows: Inhibition of DENV RNA-dependent RNA polymerase. Also noted: species or system dengue virus type 1.
Data set [10] in a line: Inhibition of DENV-3 RNA-dependent RNA polymerase. Also on record: species or system dengue virus type 3.
Data set [11] is described as follows: Binding affinity to DENV-3 RNA-dependent RNA polymerase assessed as dissociation constant incubated for 40 sec by surface plasmon resonance analysis. Also on record: species or system dengue virus type 3. In general terms: In SPR one partner is held on a chip, and binding of the other changes the refractive index at the surface.
Data set [12] deals with dengue virus type 4. In words: Binding affinity to DENV-4 RNA-dependent RNA polymerase assessed as change in enthalpy by ITC analysis. (In ITC the heat of successive injections is recorded.)
In data set [13] the target is T1, Nonstructural protein 5. In words: Inhibition of DENV-4 NS5. Also noted: species or system dengue virus type 4.
The next data set has as its system Vero. Kind of data set: Inhibition of DENV-2 RNA-dependent RNA polymerase in African green monkey Vero cells measured for 24 to 72 hrs relative to control. Format: cell-based. Particulars: dengue virus type 2, time 24-72 hrs, dose or concentration not given here.
The target of data set [14] is T1, Nonstructural protein 5. Kind of data set: Binding affinity to full length His-tagged DENV-2 NS5 assessed as dissociation constant. Also on record: species or system dengue virus type 2.

Take `CCCC/C=C/C#CCCCCCCCC(=O)O`: the midpoint of cytotoxicity in data set [1], the CC50, lay at 30000 nM. In addition, half-maximal inhibition in the data set with Dengue virus (IC50) was put at 2700 nM.
Take `O=C(O)CCNC(=O)c1cc(-c2ccccc2)c(=O)n2c1sc1ccc(C3CCCCC3)cc12`: the EC50 (commonly the midpoint of the concentration-response curve) with dengue virus type 2 was 3500 nM; in the data set with Zika virus [2] it was 1000 nM.
For `CCCC/C=C/C#CC#CCCCCCCCC(=O)O` [EXOCARPIC ACID], the cytotoxic concentration (CC50) (in general, the concentration that lowers cell viability or growth by half) in data set [1] stood at 23000 nM. Also, the IC50 (as a rule, the midpoint of a concentration-inhibition curve) in the data set on Dengue virus came to 2200 nM.
At NS5, `C[C@@]1(O)[C@H](O)[C@@H](COP(=O)(O)OP(=O)(O)OP(=O)(O)O)O[C@H]1n1ccc2c(N)ncnc21` yielded an IC50 of 8920 nM.
`O=C1N/C(=N\c2nnc(-c3cccc(F)c3)s2)S/C1=C\c1cccc(F)c1` came in with an IC50 against Nonstructural protein 5 [3] of 2300 nM.
As to `C#Cc1c(C(N)=O)ncn1[C@@H]1O[C@H](CO)[C@@H](O)[C@H]1O`, the IC50 in data set [4] worked out at 270 nM. This compound had a 50% cytotoxic concentration (CC50) in data set [5] of 1240 nM.
With `CO[C@@H]1[C@H](O)[C@@H](COP(=O)(O)OP(=O)(O)OP(=O)(O)O)O[C@H]1n1ccc(N)nc1=O`, the inhibition (commonly the drop in the measured response relative to a control, in per cent) against NS5 (Zika virus) was 72.2%.
On Nonstructural protein 5 [6], `COc1cc(O)c2c(=O)cc(-c3ccc(O)cc3)oc2c1-c1cc(-c2cc(=O)c3c(O)cc(O)cc3o2)ccc1O` [SOTETSUFLAVONE] had an IC50 of 160 nM.
The compound `C#Cc1c(C#N)ncn1[C@@H]1O[C@H](CO)[C@@H](O)[C@H]1O` displayed an IC50 in [4] of 550 nM. The same compound came in with a CC50 in data set [5] of 3990 nM.
In the case of `O=C(O)/C=C/C#CCCCCCCCC(=O)O`, the 50% cytotoxic concentration (CC50) in data set [1] was above 420000 nM. Also, the IC50 in the data set with Dengue virus was determined as 2500 nM.
As for `COc1ccc(-c2cc(C(=O)N[C@@H](Cc3ccc(O)cc3)C(=O)O)c3sc4ccc(OC5CCCCC5)cc4n3c2=O)cc1F`, the concentration giving a half-maximal response (EC50) came to 5100 nM in the data set with dengue virus type 1, 3500 nM with dengue virus type 3, 2900 nM in the data set with dengue virus type 4 [7] and 10700 nM with Zika virus [8].
In the case of `Nc1cc(C(F)(F)F)ccc1NC(=O)Nc1cccc(S(=O)(=O)Nc2ccc(C(=O)O)cc2)c1`, the half-inhibitory concentration (IC50) in data set [9] was 91000 nM.
Regarding `COc1ccc(CC(=O)O)cc1-c1ccsc1`, the concentration for half-maximal inhibition (IC50) in data set [10] amounted to 205 nM; against Nonstructural protein 5 [13], 210000 nM. Moreover, the Kd (in general, the concentration at which binding is half-saturated) in [11] was 67000 nM. In addition, the deltaH in the data set on dengue virus type 4 [12] was -7.7 kcal/mol.
Take `O=C(N[C@@H](Cc1cccc(O)c1)C(=O)O)c1cc(-c2ccccc2)c(=O)n2c1sc1ccc(C3CCCCC3)cc12`: the concentration giving a half-maximal response (EC50) with dengue virus type 2 is 2900 nM; in the data set with Zika virus [2] it was 800 nM.
Compound `Cc1cn([C@H]2C=C[C@@H](CO)O2)c(=O)[nH]c1=O` showed an inhibition in the data set with Vero of 11%.
At NS5, `C[C@@]1(O)[C@H](O)[C@@H](COP(=O)(O)OP(=O)(O)OP(=O)(O)O)O[C@H]1n1cnc2c(N)ncnc21` came in with a half-inhibitory concentration (IC50) of 5260 nM.
Consider `O=C1N/C(=N\c2nnc(-c3ccccc3Cl)s2)S/C1=C\c1cccc(F)c1`, for which inhibition on Nonstructural protein 5 [3] was half-maximal at 2100 nM (IC50). On Nonstructural protein 5 [14], the Kd stood at 9100 nM.

These data come from ChEMBL document CHEMBL5150000, “Insights on Dengue and Zika NS5 RNA-dependent RNA polymerase (RdRp) inhibitors” (Eur J Med Chem, 2021).
